Measured values: US20230339949A1, “HETEROCYCLIC SUBSTITUTED FUSED y-CARBOLINE DERIVATIVE, PREPARATION METHOD THEREFOR, INTERMEDIATE THEREOF AND USE THEREOF” (SHUJING BIOPHARMA CO., LTD, priority 2020, published 2023)

System: DOI-induced head-shaking behavior
Assay: DOI-induced head-shaking behavior in mice
Type: in vivo, ICR mice
Conditions: Mus musculus; male ICR mice, single gavage dose 1 h before DOI 1 mg/kg i.p., head-shakes counted 0-20 min; read-out: ED50 (half effective dose)
Experimental: The efficacy of the compounds of the present disclosure was evaluated by the mice model of head-shaking behavior induced by intraperitoneal injection of (±) DOI (a hallucinogenic agent usually used to replicate anti-schizophrenic animal model).
Experimental animals: ICR mice, male, 8 mice/group, Spelford (Beijing) Biotechnology Co., Ltd.
Preparation of drug: the test compounds were taken, and solvent was added, and ultrasonication was performed.
Administration route and method: oral gavage administration, 10 mL/kg (body weight).
Administration frequency and duration: single dose.
Animals were stratified by body weight and then randomly divided into blank group, model group, and administration groups, and detailed information of administration is shown in the following table.
Mice were stratified according to body weight and then randomly divided into model group, blank group and each administration group. One hour after the animals were gavage administration of the solvent or drugs, they were placed in a beaker (13 cm in diameter, 19 cm in height) with fresh padding, and the model drug DOI was injected intraperitoneally at a dose of 1 mg/kg. The times of head-shaking were recorded within 0-20 minutes after DOI was injected intraperitoneally.
Head-shaking behavior is defined as rapid rotational twitch of mouse's head or wet dog-like shaking, which should be different from normal hair grooming or inquiry behavior.
The experimental data were expressed as x±SD, and SPSS statistical software was used to test the homogeneity of variance. If the variance was homogeneous, single factor analysis of variance was performed, and Dunnett t test is used for pairwise comparison. The ED50 was calculated by nonlinear fitting with GraphPad Primis5 software.

CN1C(=O)CN2c3c1cccc3[C@]1(C)CN(CCCC(=O)c3ccc(F)cc3)CC[C@H]21 [Embodiment 1-A, (6bR,10aS)-8-(4-(4-fluorophenyl)-4-oxobutyl)-3,6b-dimethyl-6b,7,8,9,10,10a-hexahydro-1H-pyrido[3′,4′:4,5]pyrrolo [1,2,3-de]quinoxalin-2(3H)-one]
ED50: 0.024 mg/kg
